Broadly, the pIC50 is −log10 of the IC50, conventionally taken in molar units.

This passage reports IC50 results from patent US11878965B2, “Inhibitors of peptidylarginine deiminases” (Gilead Sciences, Inc., priority 2020, dated 2024).

SMILES strings stand for the structures. pIC50: −log10 of the molar value.

Sequence of human PAD4 (Q9UM07 2-663): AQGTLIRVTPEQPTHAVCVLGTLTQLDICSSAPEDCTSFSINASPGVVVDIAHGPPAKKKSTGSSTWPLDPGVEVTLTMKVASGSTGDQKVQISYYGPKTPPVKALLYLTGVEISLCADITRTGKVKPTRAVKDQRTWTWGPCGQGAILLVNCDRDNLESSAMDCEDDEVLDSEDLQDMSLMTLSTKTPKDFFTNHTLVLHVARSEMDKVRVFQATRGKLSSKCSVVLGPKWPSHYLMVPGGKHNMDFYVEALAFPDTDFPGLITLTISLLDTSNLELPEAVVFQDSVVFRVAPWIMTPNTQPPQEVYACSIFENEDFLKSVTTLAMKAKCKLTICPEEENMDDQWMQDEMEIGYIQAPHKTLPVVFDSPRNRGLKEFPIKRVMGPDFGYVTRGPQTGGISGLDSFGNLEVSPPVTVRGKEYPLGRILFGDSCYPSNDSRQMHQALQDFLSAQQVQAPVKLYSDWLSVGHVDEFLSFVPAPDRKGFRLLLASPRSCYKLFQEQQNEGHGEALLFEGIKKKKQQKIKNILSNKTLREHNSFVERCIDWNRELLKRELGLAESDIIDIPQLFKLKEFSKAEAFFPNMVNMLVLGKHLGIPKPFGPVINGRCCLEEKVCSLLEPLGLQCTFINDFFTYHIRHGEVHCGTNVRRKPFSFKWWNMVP

The first assay concerns the target human PAD4 (Homo sapiens (Human), UniProt Q9UM07). Briefly: In Vitro PAD4 BAEE Biochemical Assay. Particulars: human PAD4, BAEE substrate; 5 nM PAD4, 2 mM calcium chloride, 3 mM BAEE; geometric mean of multiple experiments. Put shortly: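 Deimination of BAEE substrate (3 mM) measured as ammonia via o-phthalaldehyde–DTT isoindole fluorescence, 405/535 nm. Tag-free bacterially expressed human PAD4 at 5 nM with 2 mM calcium chloride, pH 7.6 MOPS buffer, 30 min compound preincubation then 2 h reaction, both at 25 °C.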
On to `COc1cc(C(=O)N2CCC[C@@H](N)C2)cc2nc(-c3cc4ccc([C@@H](C)NC(=O)c5ccccc5)cc4n3CC3CC3)n(C)c12` [Example 137, N-((R)-1-(2-(5-((R)-3-aminopiperidine-1-carbonyl)-7-methoxy-1-methyl-1H-benzo[d]imidazol-2-yl)-1-(cyclopropylmethyl)-1H-indol-6-yl)ethyl)benzamide], for which the pIC50 is 7.43.
On the same count and under the same terms, the result for `COc1cc(C(=O)N2[C@H]3CC[C@@H]2[C@H](N)C3)cc2nc(-c3cc4ccc([C@@H](C)NC(=O)C5CC(F)(F)C5)nc4n3CC3CC3)n(C)c12` [Example 204, N-((R)-1-(2-(5-((1R,2R,4S)-2-amino-7-azabicyclo[2.2.1]heptane-7-carbonyl)-7-methoxy-1-methyl-1H-benzo[d]imidazol-2-yl)-1-(cyclopropylmethyl)-1H-pyrrolo[2,3-b]pyridin-6-yl)ethyl)-3,3-difluorocyclobutane-1-carboxamide] reads 7.32; that for `COc1cc(C(=O)N2CCC[C@@H](N)C2)cc2nc(-c3cc4ccc(-c5cccnc5-c5csc(N6CCCCC6)n5)nc4n3CC3CC3)n(C)c12` [Example 270, (R)-(3-aminopiperidin-1-yl)(2-(1-(cyclopropylmethyl)-6-(2-(2-(piperidin-1-yl)thiazol-4-yl)pyridin-3-yl)-1H-pyrrolo[2,3-b]pyridin-2-yl)-7-methoxy-1-methyl-1H-benzo[d]imidazol-5-yl)methanone], 6.45; that for `COc1cc(C(=O)N2CCC[C@@H](N)[C@H]2C)cc2nc(-c3cc4ccc(N(C)S(C)(=O)=O)nc4n3C3CC3)n(C)c12` [Example 47, N-(2-(5-((2R,3R)-3-amino-2-methylpiperidine-1-carbonyl)-7-methoxy-1-methyl-1H-benzo[d]imidazol-2-yl)-1-cyclopropyl-1H-pyrrolo[2,3-b]pyridin-6-yl)-N-methylmethanesulfonamide], 5.76.
On to `COc1cc(C(=O)N2C[C@H](N)[C@@H]3CC[C@H]2C3)cc2nc(-c3cc4ccc([C@@H](C)NC(=O)[C@H]5CC5(F)F)nc4n3CC3CC3)n(C)c12` [Example 220, (R)-N-((R)-1-(2-(5-((1S,4R,5R)-4-amino-2-azabicyclo[3.2.1]octane-2-carbonyl)-7-methoxy-1-methyl-1H-benzo[d]imidazol-2-yl)-1-(cyclopropylmethyl)-1H-pyrrolo[2,3-b]pyridin-6-yl)ethyl)-2,2-difluorocyclopropane-1-carboxamide], for which the pIC50 was 7.26.
Turning to `C[C@@H](NC(=O)[C@H]1CC1(F)F)c1ccc2cc(-c3nc4cc(C(=O)N5C[C@H](N)[C@@H]6CC[C@H]5C6)cc(F)c4n3C3CC3)n(CC3CC3)c2n1` [Example 227, (R)-N-((R)-1-(2-(5-((1S,4R,5R)-4-amino-2-azabicyclo[3.2.1]octane-2-carbonyl)-1-cyclopropyl-7-fluoro-1H-benzo[d]imidazol-2-yl)-1-(cyclopropylmethyl)-1H-pyrrolo[2,3-b]pyridin-6-yl)ethyl)-2,2-difluorocyclopropane-1-carboxamide], the pIC50 was 7.33.
Take `COc1cc(C(=O)N2CC[C@@H](O)[C@@H](N)C2)cc2nc(-c3cc4ccc(N(C(F)F)S(C)(=O)=O)nc4n3CC3CC3)n(C)c12` [Example 51, N-(2-(5-((3S,4R)-3-amino-4-hydroxypiperidine-1-carbonyl)-7-methoxy-1-methyl-1H-benzo[d]imidazol-2-yl)-1-(cyclopropylmethyl)-1H-pyrrolo [2,3-b]pyridin-6-yl)-N-(difluoromethyl) methanesulfonamide]: the pIC50 is 6.85.
On the same count and under the same terms, the result for `CCN(C(C)=O)c1ccc2cc(-c3nc4cc(C(=O)N5CCC[C@@H](N)C5)cc(OC)c4n3C)n(CC3CC3)c2n1` [Example 115, (R)-N-(2-(5-(3-aminopiperidine-1-carbonyl)-7-methoxy-1-methyl-1H-benzo[d]imidazol-2-yl)-1-(cyclopropylmethyl)-1H-pyrrolo [2,3-b]pyridin-6-yl)-N-ethylacetamide] reads 6.42; that for `COC(=O)N(C)c1ccc2cc(-c3nc4cc(C(=O)N5CCC[C@@H](N)C5)cc(OC)c4n3C)n(CC3CC3)c2n1` [Example 109, (R)-methyl (2-(5-(3-aminopiperidine-1-carbonyl)-7-methoxy-1-methyl-1H-benzo[d]imidazol-2-yl)-1-(cyclopropylmethyl)-1H-pyrrolo[2,3-b]pyridin-6-yl) (methyl)carbamate], 6.40; that for `C=CC(=O)N[C@@H]1CNC[C@H]1NC(=O)c1cc(OC)c2c(c1)nc(-c1cc3ccc(N(C(F)F)S(C)(=O)=O)nc3n1CC1CC1)n2C` [Example 80, N-((3R,4R)-4-acrylamidopyrrolidin-3-yl)-2-(1-(cyclopropylmethyl)-6-((N-(difluoromethyl)methyl)sulfonamido)-1H-pyrrolo[2,3-b]pyridin-2-yl)-7-methoxy-1-methyl-1H-benzo[d] imidazole-5-carboxamide], 6.62.
`COc1cc(C(=O)N2[C@H]3CC[C@@H]2[C@H](N)C3)cc2nc(-c3cc4ccc([C@@H](C)NC(=O)C(C)n5cccn5)nc4n3CC3CC3)n(C)c12` (stereo partly drawn) [Example 211, N-((R)-1-(2-(5-((1R,2R,4S)-2-amino-7-azabicyclo[2.2.1]heptane-7-carbonyl)-7-methoxy-1-methyl-1H-benzo[d]imidazol-2-yl)-1-(cyclopropylmethyl)-1H-pyrrolo[2,3-b]pyridin-6-yl)ethyl)-2-(1H-pyrazol-1-yl)propanamide]: the pIC50 is 7.04.
The same measure, in the same setting: the result for `COc1cc(C(=O)N2CCC[C@@H](N)C2)cc2nc(-c3cc4ccc([C@@H](C)NC(C)=O)nc4n3CC3CC3)n(C3CC3)c12` [Example 132, N-((R)-1-(2-(5-((R)-3-aminopiperidine-1-carbonyl)-1-cyclopropyl-7-methoxy-1H-benzo[d]imidazol-2-yl)-1-(cyclopropylmethyl)-1H-pyrrolo[2,3-b]pyridin-6-yl)ethyl)acetamide] reads 7.15; that for `COc1cc(C(=O)N2C[C@H](N)CCN2C)cc2nc(-c3cc4ccc([C@@H](C)NC(=O)C5(c6ccc(F)cc6)CC5)nc4n3CC3CC3)n(C)c12` [Example 199, N-((R)-1-(2-(5-((R)-5-amino-2-methylhexahydropyridazine-1-carbonyl)-7-methoxy-1-methyl-1H-benzo[d]imidazol-2-yl)-1-(cyclopropylmethyl)-1H-pyrrolo[2,3-b]pyridin-6-yl)ethyl)-1-(4-fluorophenyl)cyclopropane-1-carboxamide], 6.47; that for `COc1cc(C(=O)N2C[C@H](N)CC[C@@H]2C)cc2nc(-c3cc4ccc(-c5ccc(N6CCC6)nc5C)nc4n3CC3CC3)n(C)c12` [Example 260, ((2S,5R)-5-amino-2-methylpiperidin-1-yl)(2-(6-(6-(azetidin-1-yl)-2-methylpyridin-3-yl)-1-(cyclopropylmethyl)-1H-pyrrolo[2,3-b]pyridin-2-yl)-7-methoxy-1-methyl-1H-benzo[d]imidazol-5-yl)methanone], 6.44.
With `C[C@H]1CCCS(=O)(=O)N1c1ccc2cc(-c3nc4cc(C(=O)N5[C@H]6CC[C@@H]5[C@H](N)C6)ccc4n3C3CC3)n(CC3CC3)c2n1` [Example 98, ((1R,2R,4S)-2-amino-7-azabicyclo[2.2.1]heptan-7-yl) (1-cyclopropyl-2-(1-(cyclopropylmethyl)-6-((S)-3-methyl-1,1-dioxido-1,2-thiazinan-2-yl)-1H-pyrrolo[2,3-b]pyridin-2-yl)-1H-benzo[d]imidazol-5-yl)methanone], the pIC50 is 7.72.
Consider `COc1cc(C(=O)N[C@@H]2CNC[C@H]2NC(=O)CCCN(C)C)cc2nc(-c3cc4ccc(N(C(F)F)S(C)(=O)=O)nc4n3CC3CC3)n(C)c12` [Example 83, 2-(1-(cyclopropylmethyl)-6-((N-(difluoromethyl)methyl)sulfonamido)-1H-pyrrolo[2,3-b]pyridin-2-yl)-N-((3R,4R)-4-(4-(dimethylamino)butanamido)pyrrolidin-3-yl)-7-methoxy-1-methyl-1H-benzo[d]imidazole-5-carboxamide], for which the pIC50 is 4.30.
On to `COc1cc(C(=O)N2C[C@H](N)CCN2C)cc2nc(-c3cc4ccc([C@@H](C)NC(=O)c5cc(C)nc(C)c5)nc4n3CC3CC3)n(C)c12` [Example 179, N-((R)-1-(2-(5-((R)-5-amino-2-methylhexahydropyridazine-1-carbonyl)-7-methoxy-1-methyl-1H-benzo[d]imidazol-2-yl)-1-(cyclopropylmethyl)-1H-pyrrolo[2,3-b]pyridin-6-yl)ethyl)-2,6-dimethylisonicotinamide], for which the pIC50 was 7.11.
Take `COc1cc(C(=O)N2CCC[C@@H](N)C2)cc2nc(-c3cc4ccc(N(CC5CC5)S(C)(=O)=O)nc4n3CC3CC3)n(C)c12` [Example 20, (R)-N-(2-(5-(3-aminopiperidine-1-carbonyl)-7-methoxy-1-methyl-1H-benzo[d]imidazol-2-yl)-1-(cyclopropylmethyl)-1H-pyrrolo [2,3-b]pyridin-6-yl)-N-(cyclopropylmethyl) methanesulfonamide]: the negative logarithm of the IC50 (pIC50) was 4.30.

The same assay, now with this note: recombinant PAD4 5 nM, 2 mM calcium chloride, 3 mM BAEE substrate; geometric mean of multiple experiments.
For the molecule `COc1cc(C(=O)N2C[C@H](N)[C@@H]3CC[C@H]2C3)cc2nc(-c3cc4ccc([C@@H](C)NC(=O)c5cccnc5C(F)(F)F)nc4n3CC3CC3)n(C)c12` [Example 306, N-((R)-1-(2-(5-((1S,4R,5R)-4-amino-2-azabicyclo[3.2.1]octane-2-carbonyl)-7-methoxy-1-methyl-1H-benzo[d]imidazol-2-yl)-1-(cyclopropylmethyl)-1H-pyrrolo[2,3-b]pyridin-6-yl)ethyl)-2-(trifluoromethyl)nicotinamide], the pIC50 was 7.03.
`COc1cc(C(=O)N2C[C@H](N)[C@@H]3CC[C@H]2C3)cc2nc(-c3cc4ccc([C@@H](C)NC(=O)[C@@H]5C[C@H]5F)nc4n3CC3CC3)n(C)c12` [Example 288, (1S,2R)-N-((R)-1-(2-(5-((1S,4R,5R)-4-amino-2-azabicyclo[3.2.1]octane-2-carbonyl)-7-methoxy-1-methyl-1H-benzo[d]imidazol-2-yl)-1-(cyclopropylmethyl)-1H-pyrrolo[2,3-b]pyridin-6-yl)ethyl)-2-fluorocyclopropane-1-carboxamide]: the pIC50 was 7.15.
